Data as given in patent EP2027081B1, “THERAPEUTIC PROSTAGLANDIN COMPOUNDS FOR THE TREATMENT OF GLAUCOMA” (ALLERGAN, INC., priority 2006, dated 2007).
Read-outs that look alike come from different tables or passages of the source.

What was measured:
human EP2 receptors = molecular target: T1, human EP2 receptors (Homo sapiens, UniProt P43116); assay: Competition binding, [3H]PGE2, HEK 293 cells stably expressing human EP2 receptors
T1 construct: expressed in transfected cells; host or cells: HEK 293
Method: Competition binding experiments were performed in a medium containing Hank's balanced salt solution, Hepes 20 mM, pH 7.3, membranes (∼60 µg protein) or 2x10^5 cells from HEK 293 cells stably expressing human EP2 receptors, [^3H]PGE2 (10 nM) and various concentrations of test compounds in a total volume of 300 µl. Reaction mixtures were incubated at 23 °C for 60 min, and were filtered over Whatman GF/B filters under vacuum. Filters were washed three times with 5 ml ice-cold buffer containing 50 mM Tris/HCl (pH 7.3). Non-specific binding was estimated in the presence of excess unlabeled PGE2 (10 µM). Binding data fitted to the binding model for a single class of binding sites, using nonlinear regression analysis.
(§1) HEK-293 cells stably expressing the human or feline FP receptor, or EP1, EP2, or EP4 receptors were washed with TME buffer, scraped from the bottom of the flasks, and homogenized for 30 sec using a Brinkman PT 10/35 polytron. TME buffer was added to achieve a final 40 ml volume in the centrifuge tubes (the composition of TME is 100 mM TRIS base, 20 mM MgCl2, […]; 10N HCl is added to achieve a pH of 7.4).
(§2) The cell homogenate was centrifuged at 19000 r.p.m. for 20 min at 4° C using a Beckman Ti-60 rotor. The resultant pellet was resuspended in TME buffer to give a final 1 mg/ml protein concentration, as determined by Biorad assay. Radioligand binding competition assays vs. [^3H-]17 -phenyl PGF2α (5 nM) were performed in a 100µl volume for 60 min. Binding reactions were started by adding plasma membrane fraction. The reaction was terminated by the addition of 4 ml ice-cold TRIS-HCl buffer and rapid filtration through glass fiber GF/B filters using a Brandel cell harvester. The filters were washed 3 times with ice-cold buffer and oven dried for one hour.
(§3) [^3H-] PGE2 (specific activity 180 Ci mmol) was used as the radioligand for EP receptors. [^3H] 17-phenyl PGF2α was employed for FP receptor binding studies. Binding studies employing EP1, EP2, EP4 and FP receptors were performed in duplicate in at least three separate experiments. A 200µl assay volume was used. Incubations were for 60 min at 25°C and were terminated by the addition of 4 ml of ice-cold 50 mM TRIS-HCl, followed by rapid filtration through Whatman GF/B filters and three additional 4 ml washes in a cell harvester (Brandel). Competition studies were performed using a final concentration of 5 nM [^3H]-PGE2, or 5 nM [^3H] 17-phenyl PGF2α and non-specific binding determined with 10^-5M of unlabeled PGE2, or 17-phenyl PGF2α, according to receptor subtype studied.

hEP2/Gqs5 = molecular target: T2, hEP2/Gqs5 (Homo sapiens, UniProt P43116); assay: FLIPR calcium signal study, HEK-293(EBNA) cells; assay type: cell-based
T2 construct: expressed in transfected cells; host or cells: HEK-293(EBNA)
Method: (§4) Cells were seeded at a density of 5x10^4 cells per well in Biocoat® Poly-D-lysine-coated black-wall, clear-bottom 96-well plates (Becton-Dickinson) and allowed to attach overnight in an incubator at 37 °C. Cells were then washed two times with HBSS-HEPES buffer (Hanks Balanced Salt Solution without bicarbonate and phenol red, 20 mM HEPES, pH 7.4) using a Denley Cellwash plate washer (Labsystems). After 45 minutes of dye-loading in the dark, using the calcium-sensitive dye Fluo-4 AM at a final concentration of 2 µM, plates were washed four times with HBSS-HEPES buffer to remove excess dye leaving 100 µl in each well. Plates were re-equilibrated to 37 °C for a few minutes.
Cells were excited with an Argon laser at 488 nm, and emission was measured through a 510-570 nm bandwidth emission filter (FLIPR™, Molecular Devices, Sunnyvale, CA). […] The peak increase in fluorescence intensity was recorded for each well. […] The peak fluorescence change in each drug-containing well was then expressed relative to the controls.
(§5) Compounds were tested in a high-throughput (HTS) or concentration-response (CoRe) format. In the HTS format, forty-four compounds per plate were examined in duplicates at a concentration of 10^-5 M. To generate concentration-response curves, four compounds per plate were tested in duplicates in a concentration range between 10^-5 and 10^-11 M. The duplicate values were averaged.

hEP3A/Gqi5 = molecular target: T3, hEP3A/Gqi5 (Homo sapiens, UniProt P43115); assay: FLIPR calcium signal study, HEK-293(EBNA) cells; assay type: cell-based; settings: Table 3; read-out: FUNCTIONAL (Ca2+, EC50, nM) HEP3A
T3 construct: expressed in transfected cells; host or cells: HEK-293(EBNA)
T3 sequence (P43115 1-390): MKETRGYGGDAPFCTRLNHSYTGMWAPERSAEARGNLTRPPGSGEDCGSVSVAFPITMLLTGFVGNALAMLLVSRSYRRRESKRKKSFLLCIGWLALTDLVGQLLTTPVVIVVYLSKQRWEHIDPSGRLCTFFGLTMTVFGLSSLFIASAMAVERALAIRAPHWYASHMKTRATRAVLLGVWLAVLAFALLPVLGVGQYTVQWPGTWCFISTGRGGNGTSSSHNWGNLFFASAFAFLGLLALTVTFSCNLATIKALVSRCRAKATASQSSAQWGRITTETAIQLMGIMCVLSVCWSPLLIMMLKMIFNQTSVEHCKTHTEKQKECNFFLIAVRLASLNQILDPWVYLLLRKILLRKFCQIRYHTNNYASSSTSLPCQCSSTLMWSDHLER
Method: (§6) HEK-293(EBNA) cells, stably expressing one type or subtype of recombinant human prostaglandin receptors (prostaglandin receptors expressed: hDP/Gqs5; hEP1; hEP2/Gqs5; hEP3A/Gqi5; hEP4/Gqs5; hFP; hIP; hTP), were cultured in 100 mm culture dishes in high-glucose DMEM medium containing 10% fetal bovine serum, 2 mM I-glutamine, 250 µg/ml geneticin (G418) and 200 µg/ml hygromycin B as selection markers, and 100 units/ml penicillin G, 100 µg/ml streptomycin and 0.25 µg/ml amphotericin B.
as §4
(§7) Cells were excited with an Argon laser at 488 nm, and emission was measured through a 510-570 nm bandwidth emission filter (FLIPR™, Molecular Devices, Sunnyvale, CA). Drug solution was added in a 50 µl volume to each well to give the desired final concentration. The peak increase in fluorescence intensity was recorded for each well. On each plate, four wells each served as negative (HBSS-HEPES buffer) and positive controls (standard agonists: BW245C (hDP); PGE2 (hEP1; hEP2/Gqs5; hEP3A/Gqi5; hEP4/Gqs5); PGF2α (hFP); carbacyclin (hIP); U-46619 (hTP), depending on receptor). The peak fluorescence change in each drug-containing well was then expressed relative to the controls.
as §5, with “averaged. In either, HTS or CoRe format each compound was tested on at least 3 separate plates using cells from different passages to give an n ≥ 3.” for “averaged.”

EP4 receptors = molecular target: T4, EP4 receptors (Homo sapiens, UniProt P35408); assay: Radioligand binding, EP4 receptor; settings: Table 3; read-out: BINDING (Ki, nM) HEP4
T4 construct: expressed in transfected cells; host or cells: HEK-293
Method: as §1, §2, §3

HEP3 = molecular target: T5, HEP3 (Homo sapiens, UniProt P43115); assay: Radioligand binding, EP3 receptor; settings: Table 3; NA means not active
T5 sequence (P43115 1-390): T3 sequence (P43115 1-390)

hTP = molecular target: T6, hTP (Homo sapiens, UniProt P21731); assay: FLIPR calcium signal study, HEK-293(EBNA) cells; assay type: cell-based; settings: Table 1; NA means not active; read-out: FUNCTIONAL (Ca2+, EC50, nM) HTP
T6 construct: expressed in transfected cells; host or cells: HEK-293(EBNA)
T6 sequence (P21731 1-343): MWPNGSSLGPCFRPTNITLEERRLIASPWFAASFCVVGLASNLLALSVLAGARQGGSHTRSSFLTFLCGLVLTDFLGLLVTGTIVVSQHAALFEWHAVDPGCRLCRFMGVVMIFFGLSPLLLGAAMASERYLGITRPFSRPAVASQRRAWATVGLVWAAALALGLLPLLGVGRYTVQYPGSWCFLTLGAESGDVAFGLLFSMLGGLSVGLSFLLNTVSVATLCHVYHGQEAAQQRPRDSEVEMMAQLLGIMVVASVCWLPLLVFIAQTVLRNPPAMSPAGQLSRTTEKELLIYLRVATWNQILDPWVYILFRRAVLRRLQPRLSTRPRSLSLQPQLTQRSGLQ
Method: as §6, §4, §7
as §5, with “averaged. In either, HTS or CoRe format each compound was tested on at least 3 separate plates using cells from different passages to give an n ≥ 3.” for “averaged.”

[1] = Table 2, unit inferred, read-out: BINDING HEP2
[2] = Table 2, unit inferred, read-out: FUNCTIONAL HEP2
[3] = Table 3, read-out: BINDING (Ki, nM) HEP2
[4] = Table 3, read-out: FUNCTIONAL (Ca2+, EC50, nM) HEP2

T1 sequence (P43116 whole entry): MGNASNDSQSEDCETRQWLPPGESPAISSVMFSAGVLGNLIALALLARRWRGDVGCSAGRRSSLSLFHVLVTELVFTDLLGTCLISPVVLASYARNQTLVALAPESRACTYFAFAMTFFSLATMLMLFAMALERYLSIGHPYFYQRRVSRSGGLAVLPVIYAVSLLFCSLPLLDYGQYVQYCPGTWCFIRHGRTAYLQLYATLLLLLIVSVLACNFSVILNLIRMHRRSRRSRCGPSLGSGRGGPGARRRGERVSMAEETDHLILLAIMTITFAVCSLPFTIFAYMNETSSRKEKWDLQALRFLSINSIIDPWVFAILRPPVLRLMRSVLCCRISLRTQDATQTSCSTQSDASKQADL
T2 sequence (P43116 whole entry): as above
T4 sequence (P35408 whole entry): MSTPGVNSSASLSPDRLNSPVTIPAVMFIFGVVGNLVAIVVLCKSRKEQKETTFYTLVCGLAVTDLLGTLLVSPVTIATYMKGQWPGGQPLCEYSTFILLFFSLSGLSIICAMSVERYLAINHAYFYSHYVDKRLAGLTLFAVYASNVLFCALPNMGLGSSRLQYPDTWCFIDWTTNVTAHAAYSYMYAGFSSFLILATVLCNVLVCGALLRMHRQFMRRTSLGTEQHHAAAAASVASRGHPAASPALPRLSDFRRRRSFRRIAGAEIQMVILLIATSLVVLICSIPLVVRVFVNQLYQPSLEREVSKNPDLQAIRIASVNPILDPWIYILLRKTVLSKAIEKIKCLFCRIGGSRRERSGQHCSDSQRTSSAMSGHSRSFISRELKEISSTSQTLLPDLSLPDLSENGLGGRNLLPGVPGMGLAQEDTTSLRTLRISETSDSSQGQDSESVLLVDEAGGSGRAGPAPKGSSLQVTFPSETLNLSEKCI

SMILES	Ki (human EP2 receptors; [1])	EC50 (hEP2/Gqs5; [2])	also measured
CCCCC(O)Cc1ccc([C@H]2CCC(=O)[C@@H]2CCCCCCC(=O)OC)cc1 (some centres unmarked)	4600 nM	15000 nM	
CCCCC(O)Cc1ccc([C@H]2CCC(=O)[C@@H]2CCCCCCC(=O)O)cc1 (some centres unmarked)	700 nM	343 nM	
CCCCCC(O)c1ccc([C@H]2CC[C@@H](F)[C@@H]2CCCCCCC(=O)O)cc1 (some centres unmarked)	600 nM	15000 nM	
CCCCCC(O)c1ccc([C@H]2CC[C@@H](Cl)[C@@H]2CCCCCCC(=O)O)cc1 (some centres unmarked)	1900 nM	15000 nM	
CCCCC(O)c1ccc([C@H]2CCC(=O)[C@@H]2CCCCCCC(=O)O)cc1 (some centres unmarked)	1400 nM		EC50 (hEP2/Gqs5): 1410 nM
CCCCC(O)c1ccc([C@H]2CCC(=O)[C@@H]2CCCCCCC(=O)OC)cc1 (some centres unmarked)	15000 nM	15000 nM	
CCCCCC(O)c1ccc([C@H]2CCC(=O)[C@@H]2CCCCCCC(=O)OC)s1 (some centres unmarked)	7100 nM		EC50 (hEP2/Gqs5): 7100 nM
CCCCCC(O)c1ccc([C@H]2CCC(=O)[C@@H]2CCCCCCC(=O)O)s1 (some centres unmarked)	600 nM		EC50 (hEP2/Gqs5): 769 nM
CCCCCC(O)c1ccc([C@H]2CCC=C2CCCCCCC(=O)O)cc1 (some centres unmarked)	2810 nM	4880 nM	
CCCCCC(O)c1ccc([C@H]2CCC(=O)[C@@H]2CCCCCCC(=O)OC)cc1 (some centres unmarked)			Ki (human EP2 receptors; [3]): 4680 nM; EC50 (hEP3A/Gqi5): 3090 nM; Ki (EP4 receptors): 15000 nM; EC50 (hEP2/Gqs5; [4]): 2160 nM
CCCCCC(O)c1ccc([C@H]2CCC(=O)[C@@H]2CCCCCCC(=O)O)cc1 (some centres unmarked)			Ki (HEP3): 5200 nM; Ki (human EP2 receptors; [3]): 871 nM; EC50 (hEP3A/Gqi5): 90 nM; Ki (EP4 receptors): 15000 nM; EC50 (hEP2/Gqs5; [4]): 284 nM
CCCC1(C(O)c2cccc([C@H]3CCC(=O)[C@@H]3C/C=C\CCCC(=O)OC)c2)CCC1 (some centres unmarked) [Entry 1]			EC50 (hTP): > 10000 nM
CCCC1(C(O)c2cccc([C@H]3CCC(=O)[C@@H]3C/C=C\CCCC(=O)O)c2)CCC1 (some centres unmarked) [Entry 2]			EC50 (hEP2/Gqs5; Table 1, Ca2+ signal, NA means not active, read-out: FUNCTIONAL (Ca2+, EC50, nM) HEP 2): 2660 nM
